How the values were obtained:
PKG-1α [1] = biological target: T1, PKG-1α (Homo sapiens, UniProt Q13976, Y425F); experiment: PKG activity in transfected HEK-293T cells; type: cell-based; details: HEK-293T expressing Y425F-PKG-1α; SIN-1 500 μM, 30 min
T1 construct: an expression plasmid containing a full length WT-PKG-1α cDNA; expressed in transfected cells; host or cells: HEK-293T
T1 sequence (Q13976 2-671 Y425F): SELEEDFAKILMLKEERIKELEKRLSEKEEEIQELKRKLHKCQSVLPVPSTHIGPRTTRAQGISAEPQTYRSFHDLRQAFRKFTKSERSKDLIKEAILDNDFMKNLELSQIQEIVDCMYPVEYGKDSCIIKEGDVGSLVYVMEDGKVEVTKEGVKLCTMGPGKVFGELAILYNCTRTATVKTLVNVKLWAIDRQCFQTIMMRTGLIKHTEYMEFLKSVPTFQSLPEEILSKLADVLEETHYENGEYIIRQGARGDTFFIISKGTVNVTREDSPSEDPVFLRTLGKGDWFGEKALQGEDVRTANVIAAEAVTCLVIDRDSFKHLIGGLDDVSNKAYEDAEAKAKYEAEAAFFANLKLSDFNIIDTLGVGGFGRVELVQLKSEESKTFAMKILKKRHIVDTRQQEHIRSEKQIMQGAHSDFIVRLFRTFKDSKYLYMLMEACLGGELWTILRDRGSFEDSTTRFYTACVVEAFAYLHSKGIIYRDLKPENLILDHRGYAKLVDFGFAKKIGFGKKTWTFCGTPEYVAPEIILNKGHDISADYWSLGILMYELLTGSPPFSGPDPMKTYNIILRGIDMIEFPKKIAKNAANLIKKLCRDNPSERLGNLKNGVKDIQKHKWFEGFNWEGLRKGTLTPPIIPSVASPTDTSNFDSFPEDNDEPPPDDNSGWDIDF
Description: (§1) To determine the role of tyrosine 247 and tyrosine 425 in mediating the nitration dependent inhibition of PKG-1α kinase activity, Y247F- and Y425F-PKG-1α mutants were generated and expressed in HEK-293T cells. HEK-293T cells were transiently transfected with expression plasmids containing WT-, Y247F-, or Y425F-PKG-1α for 48 h. […] Protein extracts were immunoprecipitated using an antibody raised against PKG-1α and the level of nitrated PKG-1α determined by probing the membranes with an antiserum raised against 3-NT. The blots were then stripped and re-probed for PKG-1α to normalize for the efficiency of the immunoprecipitation.
(§2) Total PKG activity was determined using a non-radioactive immunoassay in cell lysates, according to the manufacturer's directions. […]
(§3) After incubation for 30 min at 30° C. to allow the phosphorylation of the bound substrate, an HRP conjugated anti-phosphothreonine specific antibody was added to convert a chromogenic substrate to a colorimetric substrate that was subsequently read spectrophotometrically at 450 nm. The change in absorbance reflected the relative activity of PKG in the sample. […] The kinetic constants were determined using nonlinear regression (curve fit) analysis (GraphPad Prism Software Inc.).

PKG-1α [2] = experiment: PKG activity in transfected HEK-293T cells; type: cell-based, human; details: HEK-293T; SIN-1 500 μM, 30 min
Description: as §1, §2, §3

[3] = test system: pulmonary artery smooth muscle cells (PASMC); experiment: PASMC phenotype markers MYH, Calponin-1, Vimentin (Western blot); type: cell-based, lamb; details: WT-PKG-1α transfected PASMC; SIN-1 500 μM, 48 h
Description: To assess the effect of nitration on pulmonary arterial smooth muscle cell (PASMC) phenotype, PASMC were transiently transfected with expression plasmids containing WT-PKG-1α, Y247F-PKG-1α, or PDEST40 (as a control) for 20 h. Cells were then exposed or not to SIN-1 (500 μM, 48 h) and the effect on synthetic and contractile markers determined. The levels of myosin heavy chain (MYH, FIG. 3A), Calponin-1 (FIG. 3B), and Vimentin (FIG. 3C) were determined. The blots were then stripped and re-probed for β-actin to normalize for protein loading. PASMC were also subjected to immunohistochemistry using antibodies to SM22-α (5 μg/ml) and PCNA (1 μg/ml). Relevant secondary antibodies linked to Alexa Fluor 488 (green) were then applied. DAPI was also used to stain (blue) the cell nuclei.

“3-morpholinosydnonimine N-ethylcarbamide [SIN-1]” was tested, and the “cGMP dependent PKG activity” value (PKG-1α [1]) was “attenuated”, the “cGMP-independent PKG activity” value (PKG-1α [2]) was “did not alter” and the “expression of contractile marker Calponin-1” value [3] was “decreased”. The “expression of contractile marker MYH” value [3] was “decreased” and the “expression of proliferative marker Vimentin” value [3] was “increased”.

Source: patent US9551711B2, “Compositions and methods for detecting nitration of PKG-1α and methods of use thereof” (Augusta University Research Institute, Inc., priority 2013, dated 2017)
